Five compounds from patent EP3290412A1, “HIV-1 NUCLEOCAPSID INHIBITORS” (Università degli Studi di Siena, priority 2016, dated 2018) can be followed below.

For experiment [1], the target named is T1, full length (1-55) HIV-1 NCp7 (Human immunodeficiency virus type 1 group M subtype B, UniProt P12493).
T1 construct: recombinant full length (1-55) HIV-1 NCp7 proteins; made in house
Nature of the experiment: Electromobility Shift Assay (EMSA), competition for ssDNA binding. Conditions: NCp7 300 nM, M13mp18 ssDNA; positive = >25% inhibition at 100µM. From the text: The assay used a recombinant full length (1-55) HIV-1 NCp7 proteins based on the NL4-3 sequence (GenBank accession number AF324493). The protein was expressed and purified as described in [Carteau, S., Gorelick, R. J. & Bushman, F. D. Coupled integration of human immunodeficiency virus type 1 cDNA ends by purified integrase in vitro: stimulation by the viral nucleocapsid protein. Journal of virology 73, 6670-6679 (1999)].
Competition for single-stranded (ss) DNA binding was realized by mixing 1 µL of serial dilutions of NC inhibitors (diluted in DMSO) with 44 µL of NCp7 (300 nM) in a reaction buffer (20 mM Tris-HCl pH 7.4, 2 mM MgCl2, 100 mM NaCl, 1 mM DTT). 5 µL of a 10 ng/µL (4 nM) solution of M13mp18 ssDNA (BayouBiolabs) were then added and the tubes were incubated for 25 minutes at 37 °C. The reaction was terminated by chilling the tubes on ice followed by the addition of 5 µL of a loading buffer (30% glycerol, 0.01% xylene cyanol, 10 mM Tris-HCl pH 7.4). Samples were then resolved on 25 cm-long, 1% (w/v) agarose gels (SeaKem LE Agarose, Lonza) in 0.5x TBE. Gels were run in a Sub-Cell GT cuvette (BioRad) for 18 h at room temperature at 3 V/cm, stained with SybrGold (Molecular Probes) and scanned for fluorescence using a Typhoon 8600 (GE Healthcare). The experiments were performed in triplicate. Competition efficiency was realized by measuring the relative distance in pixels between the unbound ssDNA control, the NCp7-bound ssDNA control and the bound ssDNA for each points of the titration with the ImageQuant software. The IC50 was estimated as the NC inhibitors concentrations for which the bound ssDNA migrated at 50% of the distance separating the bound from the unbound ssDNA.
In general terms: A gel shift assay detects complexes by their altered migration in electrophoresis.

For experiment [2], the target named is NC(11-55) (Human immunodeficiency virus type 1, UniProt P12493). In words: NC inhibition assay (NC-induced cTAR DNA destabilization, fluorescence). Conditions: for IC50: cTAR DNA 0.1 µM, 1 µM NC(11-55), 20 °C, pH 7.5, read-out: NC inhibition IC50; for inhibition at 100 µM: single point screening, positive = >25% inhibition at 100µM. In kind it is biochemical, HIV-1. From the text:
The NC inhibition assay is based on the nucleic acid chaperone activity of the NC protein. NC destabilizes the secondary structure of cTAR DNA, the complementary sequence of the transactivation response element, which is involved in minus-strand DNA transfer during reverse transcription. In the assay, the cTAR sequence from the HIV-1 Mal strain (Bernacchi et al, J Mol Biol, 2002) is labeled with a dye (Alexa488 fluorophore) and a quencher 4-(4'-dimethylaminophenylazo)benzoic acid (Dabcyl) at its 5' and 3' ends, respectively. In the absence of destabilization, the close proximity of both cTAR ends results in a strong fluorescence quenching of the dye emission by the Dabcyl group. NC(11-55) added to cTAR at a ratio of 10 NC/cTAR melts the bottom of the cTAR stem, which increases the distance between the dye and the quencher and as a result increases the dye fluorescence signal [Shvadchak et al, (2009) Identification by high throughput screening of small compounds inhibiting the nucleic acid destabilization activity of the HIV-1 nucleocapsid protein. Biochimie, 916-923]. NCIs are expected to prevent the NC-induced destabilization of cTAR and thus reverse the NC-induced increase in the fluorescence of the labeled cTAR. The activity of the inhibitor is thus evaluated from the ratio of the fluorescence intensity observed in the presence of NC with the molecule to the one in the absence of the compound.
The doubly labelled cTAR DNA oligonucleotides (55nt) were synthesised and purified by IBA GmbH Nucleic Acids Product Supply (Göttingen, Germany). Extinction coefficient at 260 nm of 5.73 x 10^5 M^-1 cm^-1 was used to determine the concentration of cTAR.
The NC(11-55) peptide (Avilov et al, Antimicrob Agents Chemother, 2012) was synthesized by solid-phase peptide synthesis on a 433A synthesizer (ABI, Foster City, CA) as previously described [De Rocquigny H, (1991) First large scale chemical synthesis of the 72 amino acid HIV-1 nucleocapsid protein NCp7 in an active form. Biochem Biophys Res Commun., 1010-1018]. The peptide was stored lyophilized and was resuspended in water before use. The concentration of peptide was determined by using an extinction coefficient of 5.7 x 10^3 M^-1 cm^-1 at 280 nm. Next, 2.5 molar equivalents of ZnSO4 were added and pH was raised to its final value by adding buffer.
All experiments were performed at 20 °C in 25 mM Tris-HCl (pH 7.5), 30 mM NaCl, and 0.2 mM MgCl2. To evaluate the inhibition activity of compounds on NC-induced cTAR destabilization, cTAR DNA (0.1 µM) was preincubated with 1 µM NC(11-55) (molar ratio NC:cTAR = 10:1) for 15 min at room temperature before addition of compound. For single point screening, all compounds were tested at three final concentrations: 1 µM, 10 µM and 100 µM. For the IC50 determination, inhibition of NC-induced cTAR melting was monitored through addition of increasing concentrations of the selected molecules to the pre-formed NC(11-55)-cTAR complex. After the addition of compound, the mixture was incubated for 15 min at room temperature before the reading. The fluorescence signal was recorded with a plate reader Xenius (SAFAS Monaco) or Fluoromax 3 spectrofluorometer (Horiba Jobin-Yvon), and the excitation and emission wavelengths were 480 and 520 nm, respectively. The spectra were corrected for dilution, buffer fluorescence and screening effect (when it was required). In order to check the occurrence of aggregation, we performed additional reading of absorption with the plate reader Xenius (SAFAS Monaco) or Cary 4000 spectrophotometer (Agilent). […]

Experiment [3] relates to HIV-1 reference strain NL4-3. In words: BiCycle assay (MT-2 then TZM-bl cells). The experiment is classed as cell-based. Conditions: Human immunodeficiency virus 1, NL43, TZM-bl, read-out: BiCycle IC50 nM. Here is the method:
BiCycle Assay is cell based assay allowing the evaluation of the antiviral activity of HIV-1 inhibitors on the whole replication cycle of HIV-1. The assay consists in a first round of infection of the T-cell line MT-2 followed by infection of TZM-bl cells. MT-2 cells were seeded at a concentration of 50,000 cells/well in a 96-well plate and infected with the HIV-1 reference strain NL4-3 in presence of five-fold dilutions of the investigational compounds. After 72 hours, 50 µl of supernatant from each well, containing the virus produced in the first round of infection, were used to infect TZM-bl cells seeded in a 96-plate well at a concentration of 30,000 cells/well. Two days later, cells were lysed adding 40 µl of Glo Lysis Buffer (Promega) to each well for 5 minutes, then 40 µl of Brighy-Glo Luciferase Reagent (Promega) were added to each well for relative luminescence units (RLU) counting using Glo-Max Multi Detection System (Promega). RLU values from each well were elaborated using the GraphPad v5.0 software to calculate the IC50 of each compound.

Bounds are passed on as bounds.

As to `CCNCc1ccnc(-c2nc(O)c(O)c(C(=O)N[C@H](C)C3CCCCC3)n2)c1` [Compound 95, (R)-N-(1-cyclohexylethyl)-2-(4-((ethylamino)methyl)pyridin-2-yl)-5,6-dihydroxypyrimidine-4-carboxamide], in experiment [1], the EMSA screening results was “Negative”. In addition, in experiment [2], the IC50 worked out at 28 µM and the inhibition at 100 µM is greater than 25%.
With `C[C@@H](NC(=O)c1nc(-c2ncccc2NC(=O)OC(C)(C)C)nc(O)c1O)C1CCCCC1` [Compound 42, tert-butyl (R)-(2-(4-((1-cyclohexylethyl)carbamoyl)-5,6-dihydroxypyrimidin-2-yl)pyridin-3-yl)carbamate], the EMSA screening results in experiment [1] is “Positive (A compound showing >25% inhibition when tested at 100µM concentration is considered as "positive")”. Besides, in experiment [2], the IC50 was found to be 14.5 µM and the inhibition at 100 µM is greater than 25%. Also, the IC50 in experiment [3] is 1600 nM.
Turning to `C[C@@H](NC(=O)c1nc(-c2cc(CNCc3ccccc3)ccn2)nc(O)c1O)C1CCCCC1` [Compound 96, (R)-2-(4-((benzylamino)methyl)pyridin-2-yl)-N (1-cyclohexylethyl)-5,6-dihydroxypyrimidine-4-carboxamide], the EMSA screening results in experiment [1] is reported as “Negative”. The compound further came in with an inhibition at 100 µM in experiment [2] greater than 25%.
In the case of `C[C@@H](NC(=O)c1nc(-c2cc([N+](=O)[O-])ccn2)nc(O)c1O)C1CCCCC1` [Compound 40, (R)-N-(1-cyclohexylethyl)-5,6-dihydroxy-2-(4-nitropyridin-2-yl)pyrimidine-4-carboxamide], the EMSA screening results in experiment [1] is on record as “Positive (A compound showing >25% inhibition when tested at 100µM concentration is considered as "positive")”. In experiment [2], the IC50 worked out at 6.35 µM and the inhibition at 100 µM is greater than 25%.
Regarding `O=C(NC1(C2CCCCC2)CC1)c1nc(-c2cc3ccccc3cn2)nc(O)c1O` [Compound 83, N-(1-cyclohexylcyclopropyl)-5,6-dihydroxy-2-(isoquinolin-3-yl)pyrimidine-4-carboxamide], the EMSA screening results in experiment [1] was “Positive (A compound showing >25% inhibition when tested at 100µM concentration is considered as "positive")”. Moreover, the inhibition at 100 µM in experiment [2] is greater than 25%.

As usually defined, the IC50 is the concentration that inhibits the measured activity by half. Broadly, the inhibition is the change of the read-out against control, counted positive when it falls.
